The values that follow come from PubChem BioAssay AID1963597 (National Center for Advancing Translational Sciences (NCATS), 2024).

For orientation: half-life means the time needed for the level to fall by half in the phase considered.

SMILES strings stand for the structures. Some results are limits rather than exact numbers.

This data set relates to human liver microsomes, metabolic stability half-life. As to the kind of experiment: NCATS Human Liver Microsomal (HLM) Stability Profiling. The conditions noted are these: higher = more stable; screened at 1 µM (by protocol). The method, boiled down: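 Half-life derived from parent loss over 0–60 min (0, 5, 10, 15, 30, 60 min) at 37 °C. Incubations: 0.5 mg/mL microsomes, 1 µM test article, NADPH regeneration, pH 7.4 phosphate; quenched in acetonitrile containing albendazole, analysed by MS.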
Background: Liver microsomes are a subcellular fraction often used to study metabolism.
For the compound `O=C(O)c1ccc(CN2CC(COc3ccccc3)C3(C2)CN(c2ccccc2)C3)cc1` (stereo not given), the half-life was determined as 64.8 min.
Turning to `FC(F)(F)c1ccccc1-c1cc(C(F)(F)F)c2nc(C3=NOC4(CCCCC4)C3)[nH]c2c1`, the half-life amounted to 67.7 min.
As for `COc1ccc2nc([C@H]3CCN(Cc4cccc(C#N)c4)C3)[nH]c2c1`, the figure is 12.3 min; as for `C#CCN(C)CCCOc1ccc(Cl)cc1Cl`, 3.52 min; as for `Cc1ccc(S(=O)(=O)Nc2ccccc2N2CCCCC2)cc1`, 3.04 min.
For `O=C(O)c1ccc(CN2CCC(CN[C@@H]3C[C@H]3c3ccccc3)CC2)cc1` the value was > 120 min; for `CC(Cc1ccc2c(c1)OCO2)NCC(O)c1ccc(O)c(O)c1` (stereo not given), 18.6 min; for `C#CCN(Cc1cc2c(=O)n(C)c(CN3CCN(C)CC3)nc2cc1Cl)c1ccc(C(=O)NCc2cccnc2)cc1`, 4.83 min.
For `COCC(=O)NCC=Cc1ccc2ncnc(Nc3ccc(Oc4ccc(C)nc4)c(C)c3)c2c1` the value was 22.7 min.
Turning to `O=C(O)c1ccc(OCCN2CCCCC2)cc1`, the half-life is > 120 min.
For `Oc1ccccc1-c1nnco1` the value was 43.3 min.
For `CC(C)COC[C@H](CN(Cc1ccccc1)c1ccccc1)N1CCCC1` the value was 21.1 min.
In turn, `COC(=O)[C@@H]1[C@H]2C[C@H]3c4[nH]c5ccccc5c4CCN3C[C@@H]2CC[C@@H]1O` showed a half-life of 83.9 min.
For `COP(=S)(OC)Oc1ccc(SC)c(C)c1` the value was 4.44 min; for `CC(C)c1ccc2oc3nc(N)c(C(=O)O)cc3c(=O)c2c1`, > 120 min.
As for `N#CC1C(=O)Nc2scc(-c3ccc(-c4ccccc4O)cc3)c2C1=O` (stereo not given), the figure is > 120 min; as for `Cc1ccc2nc(-c3cc(NC(=O)c4ccc5c(c4)OCCO5)ccc3Cl)oc2c1`, 63.3 min.
`CN(C)CCCO[C@H]1C([C@H](O)CO)O[C@@H]2OC(C)(C)O[C@@H]21` (stereo not given in full) had a half-life of 78.9 min.
As for `CN(C)c1nc(NC2CCC(NCCc3ccc(Br)cc3OC(F)(F)F)CC2)nc2ccccc12` (stereo not given), the figure is > 120 min; as for `S=C(NCc1ccc2c(c1)OCO2)N1CCN(c2ncnc3c2oc2ccccc23)CC1`, 18.6 min.
`CCOC(=O)c1cc(C#N)c(N2CCC(C(=O)NS(=O)(=O)Cc3ccccc3)CC2)nc1C` came in with a half-life of 43.7 min.
As for `CCOC(=O)c1ccc(O)cc1`, the figure is 61 min; as for `CC(CN1c2ccccc2Sc2ccccc21)N(C)C` (stereo not given), 32.3 min; as for `CC1CCN(CC(=O)N2CCCc3c2c(=O)oc2ccc(OCc4ccccc4)cc32)CC1`, 1.52 min.
The compound `NC(=O)C1(N2CCCCC2)CCN(CCCC(=O)c2ccc(F)cc2)CC1` gave a half-life of 101 min.
Consider `CCN1CCN(Cc2ccc(NC(=O)c3ccc(C)c(/C=C/c4cnc5[nH]ccc5c4OC)c3)cc2C(F)(F)F)CC1`, for which the half-life was > 120 min.
For `Cc1noc(C)c1-c1cc(O)cc(C(O)c2ccccc2)c1` (stereo not given) the value was 46.2 min; for `CN(C(=O)C(c1ccccc1)c1ccccc1)[C@H](CN1CC[C@H](O)C1)c1ccccc1`, 9.29 min; for `Cc1c(CN2CCN(C(=O)C(C)C)CC2)sc2c(N3CCOCC3)nc(-c3cnc(N)nc3)nc12`, > 120 min.
For `CN1CCCC(CC2c3ccccc3Sc3ccccc32)C1` (stereo not given) the value was 48.7 min.
Consider `O=S(=O)(O)c1cc(I)c(O)c2ncccc12`, for which the half-life was > 120 min.
For `O=C(Nc1ccccc1Br)NC1CCN(c2ccc(C(F)(F)F)cn2)C1` (stereo not given) the value was 120 min; for `CNP(=O)(OC)Oc1ccc(C(C)(C)C)cc1Cl` (stereo not given), 47.5 min.
As to `Cc1c(N2C(=O)[C@@H]3[C@H](O)CCN3C2=O)ccc(C#N)c1Cl`, the half-life was > 120 min.
For `Cc1ccc(-c2ccccc2C#N)cc1` the value was 1 min; for `CC(=O)N1CCC(Cc2ccc(C(=O)O)cc2)CC1`, > 120 min.
For `CCN[C@H]1C[C@H](C)S(=O)(=O)C2SC(S(N)(=O)=O)C=C21` (stereo not given in full) the value was 105 min; for `O=C(OCC(O)CO)c1ccccc1Nc1ccnc2c(C(F)(F)F)cccc12` (stereo not given), 34.6 min.
For the compound `CC(=O)N1C[C@H](O)C[C@H]1C(=O)O`, the half-life stood at 50.1 min.
As for `COc1ccc(CN2CCC3(CC(C)=NO3)C2)cc1` (stereo not given), the figure is 19.2 min.
`CC(C)c1ccc2oc(-c3ccc(NC(=O)c4cc5ccccc5o4)cc3)nc2c1` yielded a half-life of 25.3 min.
Regarding `Cc1nc(N)ncc1-c1nc(N2CCOCC2)c2sc(C(C)(C)O)cc2n1`, the half-life is > 120 min.
As for `OCCN1CCN(CCCN2c3ccccc3C=Cc3ccccc32)CC1`, the figure is > 120 min; as for `COc1cc2ncnc(Nc3ccc(F)c(Cl)c3)c2cc1NC(=O)C=CCN1CCCCC1`, > 120 min; as for `CNC(=O)c1cnn(-c2nc(N)c3ncn([C@@H]4O[C@H](CO)[C@@H](O)[C@H]4O)c3n2)c1`, > 120 min.
As for `Cc1cc(C)c(-n2cc(C)c3c(Cl)nc(C)nc32)c(C)c1`, the figure is 10.1 min; as for `CCOP(=S)(OCC)Oc1nc(Cl)n(C(C)C)n1`, 15.1 min.
On to `Cc1ccc2c(c1)c1c(n2CCc2ccc(C)nc2)CCN(C)C1`, for which the half-life stood at 8.67 min.
For `COc1ccc(CCNC(=O)CCc2c(C)c3cc4c(C)coc4cc3oc2=O)cc1` the value was 5.41 min.
For `O=C(CC1N=C2c3ccccc3N=C(SCc3ccc(Cl)cc3)N2C1=O)NCCc1ccccc1` (stereo not given) the value was 4.19 min; for `C[C@@H]1O[C@@H](O[C@H]2C[C@@H](O)[C@]3(CO)[C@H]4[C@H](O)C[C@]5(C)[C@@H](C6=CC(=O)OC6)CC[C@]5(O)[C@@H]4CC[C@]3(O)C2)[C@H](O)[C@H](O)[C@H]1O`, > 120 min; for `COc1ccc(CNC(=O)C2CCCN(c3nnc(C)c4c(C)n(-c5ccc(C)cc5)nc34)C2)cc1` (stereo not given), 5.53 min.
Consider `CC(CN(C)C)CN1C2=C(CCCC2)SC2CCCCC21` (stereo not given), for which the half-life came to 14.3 min.
Consider `Cn1cc(-c2[nH]c3cc(NC(=O)[C@H](N)C4CCCCC4)cc4c3c2C=NNC4=O)cn1`, for which the half-life worked out at 102 min.
As for `O=S(c1cc(Cl)cc(Cl)c1O)c1cc(Cl)cc(Cl)c1O`, the figure is 99.8 min.
For `Clc1ccc2c(c1)Nc1ccccc1S2` the value was 6.28 min; for `Cc1nc2c(-c3cnc(N)nc3)nc(N3CCOCC3)nc2n1C(C)C`, > 120 min.
As for `COc1cc2c(Nc3ccc(Cl)c(Cl)c3F)ncnc2cc1OCC1C[C@@H]2CN(C)C[C@@H]2C1` (stereo not given in full), the figure is 61.9 min; as for `CCOc1cc(CC(=O)N[C@@H](CC(C)C)c2ccccc2N2CCCCC2)ccc1C(=O)O`, 44.3 min; as for `CC(=O)NC[C@H]1CN(c2ccc(N3CCN(C(=O)CO)CC3)c(F)c2)C(=O)O1`, > 120 min.
With `Cc1nc(C2CCCCC2)c(-c2ccc(S(N)(=O)=O)c(F)c2)o1`, the half-life worked out at 30.7 min.
As for `O=C(C=Cc1cccc(S(=O)(=O)Nc2ccccc2)c1)NO`, the figure is > 120 min; as for `CCCOC(C(=O)OC1CCN(C)CC1)(c1ccccc1)c1ccccc1`, 11.3 min.
As for `O=C1COc2nccc(-c3ccccc3F)c2CN1Cc1cc(C(F)(F)F)cc(C(F)(F)F)c1`, the figure is 2.5 min; as for `C[C@]12Cc3cn[nH]c3C[C@@H]1CC[C@@H]1[C@@H]2CC[C@@]2(C)[C@H]1CC[C@]2(C)O`, 24 min.
For `O=C1CC[C@H](C(=O)N2CCCCC2)N1`, the half-life was > 120 min.
For `CNC(=O)c1ccc(N2C(=S)N(c3cnc(C#N)c(C(F)(F)F)c3)C(=O)C23CCC3)cc1F` the value was > 120 min; for `O=C(O)Cc1ccc2oc(-c3ccc(NC(=O)/C=C/c4ccc(Br)cc4)c(F)c3)nc2c1`, > 120 min.
For `CCN(CC)CCOc1ccc2c(c1)C(=O)c1cc(OCCN(CC)CC)ccc1-2` the value was > 120 min; for `O=C(Nc1nnc(-c2ccc3c(c2)OCCO3)o1)C1CCCCC1`, 0.57 min.
As to `COc1cc(Nc2ncc3c(n2)-c2ccc(Cl)cc2C(c2c(F)cccc2OC)=NC3)ccc1C(=O)O`, the half-life was > 120 min.
For `C=CCN1CC[C@]23c4c5ccc(O)c4O[C@H]2C(=O)CC[C@@]3(O)[C@H]1C5` the value was > 120 min; for `CN1CCN(C2CCC(n3cc(-c4ccc(Oc5ccccc5)cc4)c4c(N)ncnc43)CC2)CC1` (stereo not given), 58.6 min.
For `CCNCc1nc2c(N)nc3ccccc3c2n1CC(C)(C)O` the value was > 120 min.
As for `Fc1ccc([C@@H]2CCNC[C@H]2COc2ccc3c(c2)OCO3)cc1`, the figure is 71.3 min; as for `CCc1cc(-c2n[nH]c(C)c2-c2ccc3c(c2)OCCO3)c(O)cc1O`, 13.4 min; as for `N#Cc1ccnc(Nc2cc(C3CCN(C4COC4)CC3)cc(N3CCC(F)(F)C3)n2)c1`, 29.3 min.
`CCOc1cc(=O)n2c(c1C(=O)Nc1ccc(S(N)(=O)=O)cc1)CCCC2`: the half-life is > 120 min.
For `CCn1c(-c2nonc2N)nc2c(C#CCO)ncc(OCCCN)c21` the value was > 120 min.
For `COc1ccc(N(C(=O)Nc2c(C)cccc2C)c2cc(Nc3ccc(N4CCN(C)CC4)cc3)ncn2)c(OC)c1` the value was 17.1 min; for `CCC(=O)N1CCC(n2nccc2NC(=O)Nc2ccccc2Cl)CC1`, 89.7 min; for `C#C[C@]1(OC(C)=O)CC[C@H]2[C@@H]3CCC4=C/C(=N/O)CC[C@@H]4[C@H]3CC[C@@]21CC`, 6.21 min.
For `CCOC(=O)c1ccc(OCCN2C[C@H](O)[C@@H](O)[C@H](O)[C@H]2CO)cc1` the value was > 120 min; for `Oc1cccc(O)c1O`, > 120 min; for `CC[C@H](C)C(=O)O[C@H]1C[C@@H](C)C=C2C=C[C@H](C)[C@H](CC[C@@H]3C[C@@H](O)CC(=O)O3)[C@H]21`, 7.05 min.
The compound `COc1ccc2c(CNCCc3ccccc3OC)c(C(=O)O)n(Cc3ccc(F)cc3Cl)c2c1` registered a half-life of 1.79 min.
`Cc1cc(C)cc(-c2cnc3cc(Cl)c(-c4cccc(O)c4)cc3c2OCCCN)c1`: the half-life is 25.3 min.
As for `CCOC(=O)C1(CCOc2ccccc2)CCN(Cc2ccc(O)c(Cl)c2)CC1`, the figure is 5.08 min; as for `Cc1cnc(Nc2cccc(CN3CCOCC3)c2)nc1Nc1cccc(S(=O)(=O)NC(C)(C)C)c1`, 19.5 min.
For `C=CC(=O)Nc1ccc2ncnc(Nc3cccc(Br)c3)c2c1` the value was 12.5 min.
